Source: patent publication US7985417B2, “Method of lipid structure preparation” (Yissum Research Development Company of the Hebrew …, priority 2004, dated 2011)

Key:
[1] = Apparent pKa of C17HC in EPC liposomes before and after insertion of PEG-DSPE; assay type: physicochemical
Protocol: (§1) More generally, and as noted above, the method of microwave irradiation can also be used to insert a lipid-polymer (“lipopolymer”), that is a lipopolymer lacking any ligand, into a pre-formed lipid structure, such as liposomes. This general concept was illustrated in another study, described in Example 4, where liposomes having a lipid bilayer of egg phosphatidylcholine and including a fluorescent label were incubated with a micellar suspension of the lipopolymer DSPE-PEG. Two studies were done, using two different fluorescent labels, shown in FIGS. 4A-4B, incorporated into the liposome lipid bilayers. […] A small amount of one of the fluorescent lipidic labels was included in the lipids during formation of the liposomes.
(§2) Liposomes comprised of egg phosphatidylcholine (EPC) and labeled with a pH-sensitive probe, 7-heptadecyl-4-hydroxycoumarin (C17HC) (FIG. 4A) or 1,2-dioleoyl-sn-glycero-3-phosphoethanolamine (DOPE-HC) (FIG. 4B), were prepared by thin film hydration followed by down sizing using extrusion. Briefly, EPC and one of the pH-sensitive probes were dissolved in an organic solvent in a round-bottomed flask. The solvent was removed by rotary evaporation to form a thin lipid film that was hydrated with an aqueous buffer to form multilamellar liposomes. The liposome suspension was sized by extrusion through polycarbonate membranes to an average diameter of 100 nm.
(§3) A conjugate of DSPE-PEG (PEG MW 2000 Daltons) was obtained commercially. A micellar suspension of the DSPE-PEG conjugate was mixed with a suspension of the labeled-EPC liposomes were incubated for 90 seconds in the presence of microwave irradiation in a conventional microwave oven operated at 60% power (Spectra, 850 W capacity). The extent of conjugate insertion was determined by the shift in the apparent pKa of HC moiety.
With respect to the liposomes labeled with C17HC, the apparent pKa of C17HC was calculated from the change of the ratio of excitation wavelengths 380/330 (emission wavelength 450 nm) as a function of bulk pH (Zuidam and Barenholz, Biochim Biophys Acta, 1329(2):211-22 (1997)). Fluorescence was measured using an LS-50B luminescence spectrometer (Perkin Elmer, Norwalk, Conn.). As a comparative reference, the insertion of DSPE-PEG into the same liposomes at room temperature was also measured.

[2] = Apparent pKa of DOPE-HC in EPC liposomes before and after insertion of PEG-DSPE; assay type: physicochemical
Protocol: as §1
The DOPE-HC-labeled egg PC liposomes were incubated with DSPE-PEG (MW 2000 Daltons) conjugates in the presence of microwave irradiation for 90 seconds. The extent of lipopolymer insertion was calculated from the apparent pKa, as described in Example 4.
Also in this study, a sample of the EPC liposomes was combined with free polyethylene glycol (PEG, MW 2000 Daltons) and exposed for 90 seconds to microwave irradiation in the microwave oven at 60% capacity (850 W total capacity). No insertion of free PEG (i.e., PEG lacking a lipidic or hydrophobic portion) into liposomes was observed.
as §2, §3
With respect to the liposomes labeled with DOPE-HC, the apparent pKa of DOPE-HC was calculated from the change of the ratio of excitation wavelengths 370/408 (emission wavelength 480 nm) as a function of bulk pH. Fluorescence was measured using an LS-50B luminescence spectrometer (Perkin Elmer, Norwalk, Conn.) immediately after exposure of microwave irradiation and 48 hours after exposure.

[3] = EPC with PEG-DSPE (90 sec in MW) after 48 hours
[4] = EPC with PEG-DSPE (90 sec in MW) immediately

apparent pKa [1, 3]	apparent pKa [1, 4]	apparent pKa ([1]; EPC with PEG-DSPE (5 hours at RT))	apparent pKa ([1]; EPC with PEG-DSPE (5 hours at RT) after 48 hours)	apparent pKa ([1]; EPC without PEG-DSPE)	apparent pKa ([2]; EPC with PEG (90 sec in MW) after 48 hours)	apparent pKa ([2]; EPC with PEG (90 sec in MW) immediately)	apparent pKa [2, 3]	apparent pKa [2, 4]	apparent pKa ([2]; EPC without PEG-DSPE or 2000PEG, after 48 hours)	apparent pKa ([2]; EPC without PEG-DSPE or PEG)	SMILES
10.28	9.98	10.13	10.14	9.41	–	–	–	–	–	–	CCCCCCCCCCCCCCCCCc1ccc2c(O)cc(=O)oc2c1 [C17HC, 7-heptadecyl-4-hydroxycoumarin]
–	–	–	–	–	9.08	9.09	9.38	9.26	9.28	9.12	CCCCCCCC/C=C\CCCCCCCC(=O)OC[C@H](COP(=O)(O)OCCN)OC(=O)CCCCCCC/C=C\CCCCCCCC [DOPE-HC, 1,2-dioleoyl-sn-glycero-3-phosphoethanolamine]
